Data: US20030040531A1, “Remedies for reperfusion injury containing integrin alphanubeta 3 antagonist” (priority 2000, published 2003)

Key:
[1] = system: platelet aggregation; assay: inhibition of platelet aggregation, human; format: cell-based; conditions: read-out: concentration (IC50) necessary for inhibition of platelet aggregation
[2] = system: rat vascular smooth muscle cells; assay: adhesion of rat vascular smooth muscle cells to rat vitronectin; format: cell-based; conditions: read-out: concentration (IC50) necessary for inhibition of adhesion to vitronectin
Procedure: (§1) The adhesion of vascular smooth muscle cells to immobilized human vitronectin was measured in accordance with the method of Liaw et al. (L. Liaw et al., Circ. Res., 74, 214 (1994)). A Dulbecco's phosphate buffer (Dulbecco's PBS(−)) solution of human serum-derived vitronectin adjusted to a concentration of 4 μg/ml was first added to wells (50 μl/well) of a microplate (Maxisorp), and a reaction for immobilization was allowed to proceed at 4° C. overnight. After washing twice with 150 μl of Dulbecco's PBS (−), Dulbecco's PBS (−) containing 10 mg/ml of bovine serum albumin was added, followed by blocking at 37° C. for one hr. The microplate was then washed twice with 150 μl of Dulbecco's PBS (−) to prepare an assay plate.
Next, 50 μl of a Dulbecco's modified Eagle's basal medium containing 20 mg/ml of bovine serum albumin with a medicament added thereto was added to the wells of the human vitronectin-coated assay microplate, followed by pre-cultivation under 5% carbon dioxide at 37° C. for 10 min. Thereafter, 50 μl of the Dulbecco's modified Eagle's basal medium with human vascular smooth muscle cells suspended therein was added thereto, and the plate was thoroughly stirred. A reaction was allowed to proceed under 5% carbon dioxide at 37° C. for 90 min. The reaction solution containing non-adherent cells was then removed, followed by washing three times with Dulbecco's PBS (−). For the adhered cells, 100 μl of Dulbecco's PBS (−) containing 4% paraformaldehyde was added, and immobilization was allowed to proceed at room temperature for 10 min. Next, 100 μl of a Dulbecco's PBS (−) containing 0.5% Toluidine Blue and 4% paraformaldehyde was added, and staining was allowed to proceed at room temperature for 5 min, followed by thorough washing with distilled water. The inside of the wells was then air-dried, and 1% aqueous sodium dodecylsulfate solution was then added to perform cytolysis. The absorbance of the microplate thus obtained was measured at 595 nm. […] The inhibition was calculated by the following equation. IC50 was determined from a primary regression line of the logarithm of each concentration of the test compound and the logarithm of (100−inhibition)/inhibition. [formula]
Rat vascular smooth muscle cells were cultivated in a medium composed of a mixture of equal amounts of 15% fetal calf serum-containing 199 medium and RPMI 1640 medium. Separately, hamster and dog vascular smooth muscle cells were cultivated in a 10% fetal calf serum-containing Dulbecco's modified Eagle's basal medium. These cultivated cells were then suspended in a Dulbecco's modified Eagle's basal medium to concentrations of 3×10^5 cells/ml (rat), 3×10^5 cells/ml (hamster), and 4×10^5 cells /ml (dog), respectively. Rat vitronectin was used in the adhesion system of rats and hamsters, while bovine vitronectin was used in the adhesion system of dogs.

[3] = system: platelet aggregation; assay: inhibition of platelet aggregation, hamster; format: cell-based; conditions: Mesocricetus auratus, read-out: concentration (IC50) necessary for inhibition of platelet aggregation
Procedure: The platelets aggregation was measured by the Born's method (G. V. R. Born, Nature 194, 927 (1962)). Blood was collected through an injector containing a 3.8% sodium citrate solution from the aorta abdominalis (final concentration: 0.38%). Centrifugation was carried out at 900 rpm (about 80× g) for 10 min to collect platelet-rich plasma, and centrifugation was further carried out at 3,000 rpm (about 880× g) for 10 min to collect platelet-poor plasma, followed by the measurement of aggregation with an aggregometer. In this case, ADP (final concentration: 5 μM) was used as an aggregation inducer.

[4] = system: platelet aggregation; assay: inhibition of platelet aggregation, dog; format: cell-based; conditions: Canis lupus familiaris, read-out: concentration (IC50) necessary for inhibition of platelet aggregation
[5] = system: platelet aggregation; assay: inhibition of platelet aggregation, rat; format: cell-based; conditions: read-out: concentration (IC50) necessary for inhibition of platelet aggregation
[6] = biological target: integrin αvβ3 (Homo sapiens, UniProt P05106+P06756); assay: integrin αvβ3 binding assay (Pharmacological Example 1 in WO 99/38849)
integrin αvβ3, sequence (P06756 31-1048): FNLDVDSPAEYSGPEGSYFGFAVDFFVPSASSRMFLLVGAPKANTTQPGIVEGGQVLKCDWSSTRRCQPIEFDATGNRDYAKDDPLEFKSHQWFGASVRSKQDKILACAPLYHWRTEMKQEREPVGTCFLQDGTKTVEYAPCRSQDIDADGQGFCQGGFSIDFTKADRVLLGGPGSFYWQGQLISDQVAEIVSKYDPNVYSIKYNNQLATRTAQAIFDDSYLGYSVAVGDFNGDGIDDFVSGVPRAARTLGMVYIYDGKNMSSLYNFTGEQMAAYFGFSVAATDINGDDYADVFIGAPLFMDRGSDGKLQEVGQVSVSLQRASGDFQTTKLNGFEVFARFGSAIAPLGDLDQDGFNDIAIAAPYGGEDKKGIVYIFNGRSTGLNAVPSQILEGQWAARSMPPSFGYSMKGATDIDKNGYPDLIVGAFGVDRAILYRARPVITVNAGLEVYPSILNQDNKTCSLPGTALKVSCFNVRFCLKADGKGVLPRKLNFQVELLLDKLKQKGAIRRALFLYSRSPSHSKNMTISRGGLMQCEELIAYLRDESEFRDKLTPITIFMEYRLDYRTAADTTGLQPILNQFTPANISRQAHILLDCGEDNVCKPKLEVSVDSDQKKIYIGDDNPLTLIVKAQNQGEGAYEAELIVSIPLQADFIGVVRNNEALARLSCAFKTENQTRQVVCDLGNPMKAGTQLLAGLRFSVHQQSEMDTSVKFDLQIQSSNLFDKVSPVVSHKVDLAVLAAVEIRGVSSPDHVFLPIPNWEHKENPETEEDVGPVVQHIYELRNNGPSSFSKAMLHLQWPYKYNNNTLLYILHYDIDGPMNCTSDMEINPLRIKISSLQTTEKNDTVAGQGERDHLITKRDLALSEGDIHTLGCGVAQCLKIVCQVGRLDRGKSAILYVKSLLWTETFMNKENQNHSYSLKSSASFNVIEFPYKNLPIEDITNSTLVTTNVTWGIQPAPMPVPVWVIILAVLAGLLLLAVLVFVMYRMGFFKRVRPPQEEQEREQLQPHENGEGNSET
integrin αvβ3, sequence (P05106 27-788): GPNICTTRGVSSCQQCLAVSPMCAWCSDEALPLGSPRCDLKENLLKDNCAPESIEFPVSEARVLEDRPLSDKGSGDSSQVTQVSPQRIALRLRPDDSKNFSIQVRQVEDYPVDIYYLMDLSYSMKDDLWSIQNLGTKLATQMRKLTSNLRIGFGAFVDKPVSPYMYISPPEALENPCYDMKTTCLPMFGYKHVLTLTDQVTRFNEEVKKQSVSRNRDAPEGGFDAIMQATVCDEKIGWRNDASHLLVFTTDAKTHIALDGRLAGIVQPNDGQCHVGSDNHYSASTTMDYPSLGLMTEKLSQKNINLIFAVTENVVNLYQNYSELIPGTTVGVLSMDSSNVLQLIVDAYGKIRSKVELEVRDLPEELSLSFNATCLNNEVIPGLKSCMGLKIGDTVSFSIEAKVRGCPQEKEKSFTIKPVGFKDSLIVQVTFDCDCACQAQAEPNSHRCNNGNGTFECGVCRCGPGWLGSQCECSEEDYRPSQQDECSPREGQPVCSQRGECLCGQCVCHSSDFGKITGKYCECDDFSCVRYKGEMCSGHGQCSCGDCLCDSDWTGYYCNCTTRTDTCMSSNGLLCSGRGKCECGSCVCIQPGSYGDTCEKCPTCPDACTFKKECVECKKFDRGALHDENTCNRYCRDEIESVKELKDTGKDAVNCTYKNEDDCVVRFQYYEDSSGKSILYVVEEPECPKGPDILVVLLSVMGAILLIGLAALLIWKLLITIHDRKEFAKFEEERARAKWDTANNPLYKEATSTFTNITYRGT
Text: Whether or not a compound has integrin αvβ3 antagonistic activity may be determined by assaying the antagonistic action by integrin αvβ3 binding assay as described, for example, in Pharmacological Test Example 1 in WO 99/38849.

[7] = system: hamster vascular smooth muscle cells; assay: adhesion of hamster vascular smooth muscle cells to rat vitronectin; format: cell-based; conditions: Mesocricetus auratus, read-out: concentration (IC50) necessary for inhibition of adhesion to vitronectin
Procedure: as §1
Next, 50 μl of a Dulbecco's modified Eagle's basal medium containing 20 mg/ml of bovine serum albumin with a medicament added thereto was added to the wells of the human vitronectin-coated assay microplate, followed by pre-cultivation under 5% carbon dioxide at 37° C. for 10 min. […] The absorbance of the microplate thus obtained was measured at 595 nm. […] The inhibition was calculated by the following equation. IC50 was determined from a primary regression line of the logarithm of each concentration of the test compound and the logarithm of (100−inhibition)/inhibition. […]

[8] = system: hamster acute ischemia-reperfusion model; assay: hamster acute ischemia-reperfusion model; format: in vivo; conditions: for reduction of myocardial infarct size (IS/AR): sodium salt mixed with arginine; for myocardial infarct size (IS/AR): average±SE, n=5, solvent administration group 49.3±7.1%
Procedure: A polyethylene tube was inserted into the carotid artery and the survical vein of Syrian male hamsters (10 to 13 weeks old) under pentobarbital anesthesia (60 mg/kg, i.p.). An electrocardiogram (I or II leading) was measured through a bioelectricity amplifier by leading from electrodes which had pierced the limbs. A polyethylene tube was inserted into the trachea, and artificial respiration was carried out with an artificial respirator (amount of ventilation: 10 ml/kg/stroke, number of times of ventilation: 70 strokes/min). The blood pressure was measured through a blood pressure amplifier, and the heart rate was measured with a heart rate unit using blood pressure as a trigger. The animals underwent thoracotomy, and the coronary, together with the myocardium, was then occluded using a suture with a needle. Ischemia for 90 min was followed by reperfusion for 2 hr to quantitatively determine myocardial infarct size.
A sodium salt of the compound represented by formula (IV) was mixed with a 2-fold equivalent of arginine, and the mixture was dissolved in a 5% glucose solution. The dose volume was 2 ml/kg+2 ml/kg/h (bolus +infusion). For a solvent administration group, a 0.64 mg/ml arginine/5% glucose solution was used. The medicament was continuously administered through an infusion pump for the period starting with one min before ischemia and ending with the completion of the experiment. After reperfusion for 2 hr, the animals were slaughtered by intraveneous injection of 1,000 U/kg of heparin and an excessive amount of pentobarbital, and the heart was then removed. After perfusion with a Ringer solution, blood was washed away from the heart, and the coronary artery was re-occluded. After the reocclusion, 0.4 ml of 0.1% Evans blue was injected through the aorta. The heart was rinsed with physiological saline and was then cut into about 1 mm slices. For each slice, the left ventricle (LV) was separated, and the weight of the left ventricle and the weight of the area-at-risk (AR) were measured. The area-at-risk was stained with a 50 mM Tris.HCl (pH 7.4, 37° C.) buffer containing 1.5% triphenyltetrazolium chloride heated at 37° C., and the weight of the infarct area (IS; infarct size) was measured. The measurement of the weight was carried out under a blind.

O=C(NCC(NS(=O)(=O)c1ccccc1)C(=O)O)c1ccc(N2CCC(NC3=NCCCN3)CC2)c(F)c1 (stereo in doubt) [formula (IV), (2S)-Benzenesulfonylamino-3-[3-fluoro-4-{4-(1,4,5,6-tetrahydropyrimidin-2-ylamino)-piperidin-1-yl}benzoylamino]propionic Acid]
IC50 [1]: 55 nM
IC50 [2]: 230 nM
IC50 [3]: 1900 nM
IC50 [4]: 45 nM
IC50 [5]: > 100000 nM
IC50 [6]: 0.2 nM
IC50 [7]: 730 nM
reduction of myocardial infarct size (IS/AR) ([8]; group H 1.0 mg/kg+1.0 mg/kg/h (bolus+infusion), significant difference): 49.3%
myocardial infarct size (IS/AR) ([8]; group H 1.0 mg/kg+1.0 mg/kg/h): 25.0±2.8%
reduction of myocardial infarct size (IS/AR) ([8]; group L 0.33 mg/kg+0.33 mg/kg/h (bolus+infusion)): 30.9%
myocardial infarct size (IS/AR) ([8]; group L 0.33 mg/kg+0.33 mg/kg/h): 34.0±5.0%
